Data on 1 substance can be found in patent US20090131500A1, “PORPHYRIN DERIVATES AND THEIR USE AS PHOTOSENSITIZERS IN PHOTODYNAMIC THERAPY” (priority 2006, published 2009).

Holding throughout (type): physicochemical
Series [1] in a line: Steady-state fluorescence spectrum (fluorescence quantum yield). On the procedure: (§1) The ground state absorption spectra were recorded at room temperature using a commercial spectrophotometer Shimadzu UV-2501PC. Steady-state fluorescence spectra were measured in 1 cm×1 cm quartz optical cells using a combination of a cw-Xenon lamp (XBO 150) and a monochromator (Lot-Oriel, bandwidth 10 nm) for excitation and a polychromator with a cooled CCD matrix as a detector system (Lot-Oriel, Instaspec IV).

A short description of series [2]: Transient absorption spectra (ISC / triplet quantum yield). As for the experimental part: To measure transient absorption spectra (TAS), a white light continuum was generated as a test beam in a cell with D2O/H2O mixture using intense 25 ps single pulses from a Nd:YAG laser (Ekspla) at 1064 nm. Before passing through the sample, the continuum radiation was split to get a reference spectrum. The transmitted as well as the reference beam were focused into two optical fibers and were recorded simultaneously at different traces on a CCD-matrix (Lot-Oriel, Instaspec IV). The tunable radiation of a OPO/OPG (Ekspla, tuning range 210-2300 nm) pumped by the third harmonic of the same laser was used for excitation of the samples. The mechanical delay line allowed measuring the light-induced changes in the absorption spectrum at different time delays up to 15 ns after excitation.

The nature of series [3]: Time-resolved singlet oxygen luminescence at 1270 nm (singlet oxygen quantum yield). To be noted: excitation at 510 nm, Pheo as reference. As for the experimental part:
Photosensitizer-generated time-resolved singlet oxygen luminescence was measured at 1270 nm. A nanosecond Nd-YAG laser (BMI) equipped with an OPO (BMI) was used to excite the samples at 510 nm and the luminescence signal was recorded by a germanium pin diode (Northcoast). To calculate the singlet oxygen quantum yield, (DA, the solution of Pheo in DMF as well as in ethanol were used as reference (ΦΔ^Pheo=0.52).

The nature of series [4]: Ground state absorption spectrum. As for the experimental part: as §1

For the substance “5^4, 10^4, 15^4, 20^4-tetra-t-butyl[3,5^2]-ethano-5^6-methyl-3^1-oxo-5,10,15,20-tetraphenylporphyrin [FB-1-CO]”, the “fluorescence quantum yield ΦFl” value in series [1] worked out at 0.02. Further, in series [2], the “ISC quantum yield ΦISC” value turned out to be 0.95±0.05. The “singlet oxygen quantum yield ΦΔ” value in series [3] is 0.9. In series [4] (in ethanol (FIG. 1)), the “absorption band of the first excited singlet state” value was found to be 690 nm. For the same substance, the “Qy-absorption at λ” value in series [4] (room temperature) was 690 nm.
